For 99 compounds, cytotoxicity results are on record in ChEMBL document CHEMBL3507680, “University of Dundee, Gates Library screen for HepG2 cell viability”.

A short description of this data set: Human HepG2 cell viability assay in 384 well format. Particulars: HepG2 cells, read-out: Inhibition. Type of data set: toxicity, cell-based. More on the design: dose 125 nL, time 70.5 hour; cytotoxicity at 70.5 h: concentration not given beside the values.
Turning to `CCOc1cccc2c1OCC(C(=O)NC(C)Cn1cccn1)=C2` (centres undefined), the cytotoxicity at 70.5 h worked out at 16.6%.

With `CCOCC(=O)N1CCC2(CC1)COCCN2CCOC`, the cytotoxicity at 70.5 h is -1.68%.

As to `CC(C)c1nc(C2CCCN(C(=O)CCn3ccccc3=O)C2)no1` (centres undefined), the cytotoxicity at 70.5 h is 22.5%.

`O=C(c1cccnc1)N1CCC2(CC1)CC(Oc1ccccc1)CO2` (centres undefined): the cytotoxicity at 70.5 h came out at 26.5%.

In the case of `c1cc2c(cc1CN(Cc1nc(C3CC3)no1)C1CCCC1)OCO2`, the cytotoxicity at 70.5 h came out at 6.65%.

For `CSc1ncc(C(=O)N(C)C(C)Cc2ccccn2)cn1` (centres undefined), the cytotoxicity at 70.5 h is -5.33%.

For `Cn1ncc2c1CCCC2NCc1cnc(-c2ccccc2)nc1` (centres undefined), the cytotoxicity at 70.5 h was -0.439%.

As to `O=C(N1CCOCC1)N1C[C@H]2CC[C@@H]1CN(C1Cc3ccccc3C1)C2`, the cytotoxicity at 70.5 h came out at 5.2%.

On to `CC(C)CNc1nc(C(=O)/N=c2\[nH]nc(C(C)(C)C)s2)cs1`, for which the cytotoxicity at 70.5 h was 4.48%.

In the case of `CCS(=O)(=O)CC(=O)NCC1(c2c(F)cccc2F)CCCC1`, the cytotoxicity at 70.5 h came out at 18%.

Consider `CC(C)NC(=O)COc1nc(C(C)C)no1`, for which the cytotoxicity at 70.5 h is 18%.

With `COc1cc(C)nc(N2CCN(C(C)c3nc(C)no3)CC2)n1` (centres undefined), the cytotoxicity at 70.5 h was -6.32%.

Consider `CC(C)c1nc(CN(C)C2CCN(CC(F)(F)F)C2)no1` (centres undefined), for which the cytotoxicity at 70.5 h amounted to 1.98%.

Consider `CCS(=O)(=O)N1CCCn2nnc(CNC(C)=O)c2C1`, for which the cytotoxicity at 70.5 h turned out to be 7.38%.

Turning to `CN(c1ccc(CNC(=O)c2ccc(O)nc2)cc1)C1CCCCC1`, the cytotoxicity at 70.5 h was 0.503%.

On to `Cc1nncn1CCNC(=O)C(C)(C)c1cccc(C(F)(F)F)c1`, for which the cytotoxicity at 70.5 h was -9.3%.

On to `O=C(CNC(=O)C1CC1)Nc1c(F)cccc1Oc1ccccc1`, for which the cytotoxicity at 70.5 h was -3.31%.

As for `Cc1nc(C)n(C2CCCN(C(=O)CCOC(C)C)C2)n1` (centres undefined), the cytotoxicity at 70.5 h was 10.2%.

In the case of `COc1ccc(NC(=O)N2CCC(c3nnc[nH]3)CC2)cc1C`, the cytotoxicity at 70.5 h is -3.69%.

In the case of `CSCC(C)(O)CNC(=O)Nc1cc(C)cc(C)c1` (centres undefined), the cytotoxicity at 70.5 h is -5.72%.

Turning to `CN1C(=O)c2ccc(C(=O)N(Cc3cnn(C)c3)C3CC3)cc2C1=O`, the cytotoxicity at 70.5 h is -16.5%.

`Cc1cc(Nc2ncccn2)nc(C2CCCN(CCO)C2)n1` (centres undefined): the cytotoxicity at 70.5 h is -9.85%.

As for `Cc1cc2cccc(C(=O)N3CC[C@](C)(O)[C@H](C)C3)c2o1`, the cytotoxicity at 70.5 h turned out to be 14.5%.

Take `O=C(c1ccsc1)N1CCOC2(CCN(Cc3cccnc3)CC2)C1`: the cytotoxicity at 70.5 h is -1.16%.

Consider `FC1(F)CCNCC12CCN(c1cccnc1)C2` (centres undefined), for which the cytotoxicity at 70.5 h turned out to be 13.7%.

Consider `CCn1ccc2ccnc(CC3CN(C(=O)c4ccc(F)cc4)C3)c21`, for which the cytotoxicity at 70.5 h is -6.52%.

Regarding `COc1ccc(-c2cc(=O)n3c(n2)CCCCC3)cc1`, the cytotoxicity at 70.5 h was -10.4%.

Regarding `O=C1Nc2ccccc2CC12CCCN2Cc1ccccn1` (centres undefined), the cytotoxicity at 70.5 h stood at 29.1%.

On to `O=c1cc(CN2C[C@H]3CC[C@@H]2CN(Cc2ccccc2)C3)[nH]c(=O)[nH]1`, for which the cytotoxicity at 70.5 h came out at 2.22%.

Consider `CC(C)CC(c1nc(-c2cnn(C)c2)no1)N1CCCCC1=O` (centres undefined), for which the cytotoxicity at 70.5 h is -3.04%.

Consider `CN(C)CC(=O)N1CCc2ncnc(-c3ccsc3)c2CC1`, for which the cytotoxicity at 70.5 h was -0.46%.

Consider `CS(=O)(=O)N[C@H]1CN(C(=O)CCc2ccc(=O)[nH]n2)C[C@@H]1C1CC1`, for which the cytotoxicity at 70.5 h was -7.22%.

As to `Cn1cc(CN2CCCC23CCN(C(=O)c2cccs2)CC3)cn1`, the cytotoxicity at 70.5 h was -11.6%.

Regarding `Cc1cc(C)c2c(c1)C(NC(=O)CSCC(N)=O)CCO2` (centres undefined), the cytotoxicity at 70.5 h was -9.85%.

Regarding `COC(=O)NCC(=O)NCc1nn(-c2ccccc2)c2c1CCC2`, the cytotoxicity at 70.5 h is -4.34%.

`N#Cc1cccc(OC2CCN(C(=O)c3cncc(O)c3)CC2)c1`: the cytotoxicity at 70.5 h is -2.58%.

Consider `Cc1cccc(CNC[C@H]2COCc3nc4cccnc4n32)n1`, for which the cytotoxicity at 70.5 h was -9.5%.

For `CCc1ccc(NC(=O)CC2Cn3ncnc3NC2=O)cc1` (centres undefined), the cytotoxicity at 70.5 h was -16.3%.

Take `O=S1(=O)NC(C2CCN(Cc3ccccn3)CC2)Nc2ccccc21` (centres undefined): the cytotoxicity at 70.5 h is -9.26%.

Take `COc1cccc2sc(N(C)CC(=O)NCc3nc(C)no3)nc12`: the cytotoxicity at 70.5 h was -3.58%.

`Cc1cc(F)ccc1S(=O)(=O)N1CCN(C)Cc2ccccc21`: the cytotoxicity at 70.5 h is -6.39%.

`Cc1cnc(-c2nc(O)c3c(n2)CN(C(=O)C2CCOC2)CC3)cn1` (centres undefined): the cytotoxicity at 70.5 h is -1.76%.

For `COC(=O)NCC(=O)N(C)Cc1csc(C)n1`, the cytotoxicity at 70.5 h was -4.39%.

As to `CN(CCO)Cc1nnc(C2CCN(C(=O)c3cc[nH]c3)CC2)n1C`, the cytotoxicity at 70.5 h was -1.84%.

Turning to `CC(C)c1cnc(N2C[C@H](CO)C[C@H](CN3CCOCC3)C2)nc1`, the cytotoxicity at 70.5 h is -4.2%.

With `CC(C)n1cnnc1Cn1c(=O)cnc2ccccc21`, the cytotoxicity at 70.5 h is -4.23%.

As to `CN(C)C(=O)CN1CCCCC1c1nc(N)ncc1-c1ccccc1` (centres undefined), the cytotoxicity at 70.5 h is -17.6%.

For `c1cnn(CC2CN(CCc3ccncc3)CCO2)c1` (centres undefined), the cytotoxicity at 70.5 h is -4.36%.

As to `Cc1nc(NCCc2ccccc2)cc(C(=O)N2CCOCC2)n1`, the cytotoxicity at 70.5 h was determined as 5.2%.

`COc1cc(OC)cc(C2CC(=O)Nc3c2nc2n3CCCC2)c1` (centres undefined): the cytotoxicity at 70.5 h was -3.11%.

For the compound `O=C(NCCn1cccc1)C1CCN(C2CCCCC2)CC1`, the cytotoxicity at 70.5 h is -13.6%.

Turning to `O=C(CCN1CCCCO1)N1CCC(CO)(Cc2ccccc2)CC1`, the cytotoxicity at 70.5 h was -6.23%.

On to `O=C(C1CCOCC1)N1CCc2ncnc(-c3ccccc3)c2CC1`, for which the cytotoxicity at 70.5 h turned out to be 1.86%.

Regarding `O=C(c1ccc[nH]1)N1CCc2cc(S(=O)(=O)N3CCOCC3)ccc2C1`, the cytotoxicity at 70.5 h is 50.8%.

Turning to `Cn1cccc1C(=O)N1C[C@H]2CN(CCN3CCCC3)C(=O)[C@H]2C1`, the cytotoxicity at 70.5 h was -8.62%.

With `COCCC(=O)N1CCN(C)c2ncccc2C1`, the cytotoxicity at 70.5 h was -6.73%.

As to `O=C(C1CC=CC1)N1CCC2(CC1)CNCCO2`, the cytotoxicity at 70.5 h is -5.99%.

As for `O=C(c1cccnc1)N1CCCC1c1cc[nH]n1` (centres undefined), the cytotoxicity at 70.5 h came out at 23.9%.

Take `Cc1cc(C(=O)N2CCN(CC(O)Cn3cccn3)CC2)c(C)o1` (centres undefined): the cytotoxicity at 70.5 h was found to be 6.38%.

As to `Cc1cc(C(=O)NCC(C)C)nn1C`, the cytotoxicity at 70.5 h is -5.81%.

On to `CC(C)CCNC(=O)c1ccc(-n2cnc3ccccc3c2=O)cc1`, for which the cytotoxicity at 70.5 h was -27.3%.

For the compound `O=C1CCC2(CCNCC2)CN1Cc1nncn1CCc1ccccc1`, the cytotoxicity at 70.5 h is -8.25%.

For `COc1cc(CN2CCCCCC2c2cccs2)cc(OC)c1OC` (centres undefined), the cytotoxicity at 70.5 h was -9.84%.

Consider `CCc1ccccc1Nc1noc2c1CN(C(=O)C1CCCO1)CC2` (centres undefined), for which the cytotoxicity at 70.5 h is -3.46%.

Consider `Cn1cnc2c1CCN(Cc1ccc(C(=O)N3CCCC3)cc1)C2`, for which the cytotoxicity at 70.5 h is -3.6%.

As for `CC(c1nnc(-c2ccccc2)o1)N1CCC(Nc2ccccc2)CC1` (centres undefined), the cytotoxicity at 70.5 h turned out to be 8.58%.

`CN(C)C(CNC(=O)c1ccnc(-n2cncn2)c1)c1ccccc1` (centres undefined): the cytotoxicity at 70.5 h is -9.4%.

Take `O=C1C(Sc2nnnn2C2CC2)CCN1c1ccccc1F` (centres undefined): the cytotoxicity at 70.5 h is -3.39%.

Take `O=S(=O)(NCCc1c[nH]c2ccc(F)cc12)C1CCOCC1`: the cytotoxicity at 70.5 h is -16%.

As to `COCC(=O)Nc1cnc(N2CCOCC2)nc1`, the cytotoxicity at 70.5 h is -3.21%.

For the compound `COc1cc2c(cc1CN1CCn3c(CO)nnc3C1)CCC2`, the cytotoxicity at 70.5 h turned out to be 8.8%.

Take `CN1C(=O)CC(C(=O)O)C12CCN(Cc1cc(F)ccc1Cl)CC2` (centres undefined): the cytotoxicity at 70.5 h was -9.93%.

Consider `CCCc1cc(C(=O)N(C)Cc2ccc(OC)c3ncccc23)n(C)n1`, for which the cytotoxicity at 70.5 h turned out to be 2%.

For `O=C(CCCN1CCCCC1)N[C@H](C(=O)O)c1cccc(F)c1F`, the cytotoxicity at 70.5 h was -6.96%.

For `Cc1ncsc1C(=O)N1CCC(O)(Cn2c(C)cc3ccncc32)CC1`, the cytotoxicity at 70.5 h is -0.305%.

As to `CCCc1ncc(C(=O)N2CCOc3ncccc32)s1`, the cytotoxicity at 70.5 h was -2.81%.

As for `CC(C)c1nccc([C@@H]2C[C@@H]3CCN(Cc4ccoc4)C[C@H]3O2)n1`, the cytotoxicity at 70.5 h is -4.41%.

On to `CC(C)CNC(=O)c1cc(C2CC2)nc2c1c(C1CCCN1)nn2C` (centres undefined), for which the cytotoxicity at 70.5 h came to 13.8%.

Regarding `COCCN1C[C@@H]2CN(Cc3cccc(C)n3)C[C@@H]2C1=O`, the cytotoxicity at 70.5 h is -13.6%.

`O=C(CC1CCCC1)N1CCC(c2cc3ncccc3c(O)n2)CC1`: the cytotoxicity at 70.5 h was -9.11%.

Turning to `CCc1nnsc1C(=O)NCc1c(C)nn(CCOC)c1C`, the cytotoxicity at 70.5 h was -7.41%.

For `CCOCCN1CCN(CC(O)c2ccc(F)cc2)CC1` (centres undefined), the cytotoxicity at 70.5 h was -6.89%.

Turning to `CC(C(=O)NCc1ccnc(OCC(F)(F)F)c1)n1cncn1` (centres undefined), the cytotoxicity at 70.5 h is -2.68%.

On to `CCc1nnc(Nc2cc(C)nc(C3CCN(c4cnccn4)C3)n2)s1` (centres undefined), for which the cytotoxicity at 70.5 h is -15.3%.

In the case of `Cn1cnnc1C1CCCN(C(=O)c2cc(Cl)cc(Cl)c2)C1` (centres undefined), the cytotoxicity at 70.5 h is -8.15%.

With `CCc1ccc(CN2CCC3(CC2)C(=O)N(C)CCN3CC2CC2)cc1`, the cytotoxicity at 70.5 h is -13.9%.

`CCCC(=O)N1CCC(Cc2ccccc2-c2ccccc2)(C(N)=O)C1` (centres undefined): the cytotoxicity at 70.5 h is -6.16%.

In the case of `CC(Nc1nc2c(cnn2C)c(=O)[nH]1)c1ccccn1` (centres undefined), the cytotoxicity at 70.5 h came out at 13%.

Regarding `O=C(c1ccoc1)N(Cc1ccncc1)C1CC1`, the cytotoxicity at 70.5 h was -14%.

Take `Fc1ccc(N2CCC3(CC2)CC(OCc2cccnc2)CO3)cc1` (centres undefined): the cytotoxicity at 70.5 h was 0.624%.

Turning to `Cc1cnc(C(=O)N2CCCCC2c2nc(C)cs2)cn1` (centres undefined), the cytotoxicity at 70.5 h was -0.288%.

On to `CC(c1cccnc1)N(C)S(C)(=O)=O` (centres undefined), for which the cytotoxicity at 70.5 h is -2.51%.

In the case of `CN(Cc1ccco1)[C@@H]1CN(Cc2nccn2C)[C@@H]2CCCO[C@H]12`, the cytotoxicity at 70.5 h was -8.73%.

As for `O=C(N1CCCC1)N1CCO[C@H]2[C@@H](Oc3ccccn3)CC[C@@H]21`, the cytotoxicity at 70.5 h is -6.73%.

As to `CC(=O)c1ccc(CN2CC(Oc3ccccc3C)C2)cc1`, the cytotoxicity at 70.5 h was -1.63%.

Consider `COc1ncccc1NC(=O)N(Cc1ccc(C(N)=O)cc1)C1CC1`, for which the cytotoxicity at 70.5 h is -12.7%.

`Cn1nc(C(=O)N2CCOCC2)c2c1CN(CC1CCC1)C2`: the cytotoxicity at 70.5 h is -5.26%.

On to `O=C1NCCN1C1CCN(Cc2ccccn2)CC1`, for which the cytotoxicity at 70.5 h is -5.43%.

With `CCc1nnc2n1CCN(C(=O)c1ccc3[nH]nnc3c1)C2`, the cytotoxicity at 70.5 h is -8.74%.
